Reference: BigSolDB 2.1

Conditions: 298.15 K

CCC(C)n1ncn(-c2ccc(N3CCN(c4ccc(OC[C@H]5CO[C@](Cn6cncn6)(c6ccc(Cl)cc6Cl)O5)cc4)CC3)cc2)c1=O (mixture of isomers)
Conditions | solubility (mole fraction)
in DMAc | 0.0118
in DMF | 0.0107
in DMSO | 0.00175
in NMP | 0.022
in THF | 0.00212
in acetone | 0.000637
in acetonitrile | 7.95e-05
in chloroform | 0.0504
in dichloromethane | 0.0327
in ethanol | 1.91e-05
in isopropanol | 2.14e-05
in methanol | 3.79e-05
in n-butanol | 2.3e-05
in n-propanol | 2.05e-05
in transcutol | 0.00073
in water | 2.43e-07
